From ChEMBL document CHEMBL3507680, “University of Dundee, Gates Library screen for HepG2 cell viability”

Test: Human HepG2 cell viability assay in 384 well format
Assay type: toxicity, cell-based
Set-up: dose 125 nL, time 70.5 hour; concentration not given beside the values
Conditions: HepG2 cells, read-out: Inhibition

Structure (SMILES) | cytotoxicity at 70.5 h [%]
COc1ccc(-c2nc(CN3CC(n4nc(C)cc4C)C3)no2)cc1 | -5.57
N#Cc1ccc(CNCC(C(=O)N2CCOCC2)c2ccccc2)cc1 (stereo unspecified) | -3
CN(C(=O)c1cccc(C(=O)NS(C)(=O)=O)c1)c1ccccc1 | -8.09
CC(C)C1CN(C(=O)c2ccc(N3CCCC3)nc2)CCS1 (stereo unspecified) | -8.6
O=C(NC1(c2cccc(F)c2)CCOCC1)c1ccoc1 | -6.8
CCc1nc(C2CCCN2Cc2nc(CCOC)no2)no1 (stereo unspecified) | -9.31
CC(C)C(C(=O)N1CCCN(Cc2cnn(C)c2)CC1)n1cncn1 (stereo unspecified) | -7.59
COCCC(=O)N1CCc2cc(Cl)cc(Cl)c2C1 | -2.57
CN(Cc1cccc(F)c1)C(=O)CN1CCCC1CCc1ccccc1 (stereo unspecified) | -4.07
CC(C)OCCOCc1cccc(NC(=O)NCCn2ccnc2)c1 | -8.94
COc1cccc(CN(C)C(=O)CN2CC(n3nc(C)cc3C)C2)c1 | -1.82
COc1cccc(CN(C)C(=O)Nc2ccc3c(c2)OCCO3)c1 | 12.4
CCc1ccc(CNC(=O)NC(C)CN2CCOCC2)s1 (stereo unspecified) | 6.35
CC(CN1CCOCC1)NC(=O)N(C)Cc1ccc(Cl)s1 (stereo unspecified) | -2.73
CC(=O)N1CCCN(Cc2csc(-c3ncccn3)n2)CC1 | -7.01
CCN(CC)C(=O)c1ccc(NC(=O)CNc2ccc(F)cc2Cl)cc1 | -6.34
Cc1cc(=O)n2ncnc2n1CC(O)c1cc(F)ccc1F (stereo unspecified) | -11.1
O=C(Cc1ccccc1F)N1CCN(C(=O)c2ccoc2)CC1 | -1.84
COc1ccc(-c2nnc(SC(C)C(=O)NCC(C)C)[nH]2)c(OC)c1 (stereo unspecified) | 56.9
COc1ccc(-c2nnc(SC(C)C(=O)NC3CC3)[nH]2)c(OC)c1 (stereo unspecified) | 30.9
O=C(c1cc[nH]n1)N1CCCC1C1CCN(Cc2ccccc2)CC1 (stereo unspecified) | -3.3
O=C(CCN1CCC(C(=O)c2cc(F)ccc2F)CC1)NC1CC1 | -0.804
Cc1c(C(=O)NC(C)C(C)C)nnn1-c1cccc2c1CCN(C)C2 (stereo unspecified) | 5.93

Structure (SMILES) | cytotoxicity at 70.5 h [%]
Cc1cc(C)n(C2CN(CC(=O)N(C)Cc3ccc(C)o3)C2)n1 | -9.43
CCS(=O)(=O)N1CCc2c(cccc2NC(=O)NCCOC)C1 | -1.31
Cc1ccccc1CS(=O)(=O)CC(=O)NCc1ccccc1F | 4.2
COc1ccc(NC(=O)C(c2cccc(F)c2)N2CCOCC2)cc1 (stereo unspecified) | -8.8
CCCOCC(=O)NC1CCc2nc(C)cn2C1 (stereo unspecified) | -2.67
CCOCCC(=O)Nc1cccc(Oc2ccccn2)c1 | 23.9
Cc1n[nH]c(C2CN(C(=O)c3ccco3)CCO2)n1 (stereo unspecified) | -4.63
COc1cccc(CN(C)C(=O)CSc2ccc3c(c2)OCCO3)c1 | -4.28
CN(C)C(=O)Cc1nc(CN2CCCCC2Cn2cccn2)cs1 (stereo unspecified) | 37
CCN(Cc1ccco1)C(=O)c1cc(OC)c2c(c1)OCCO2 | 5.2
CCOCCOC(C)C(=O)NCc1cn2cc(Br)ccc2n1 (stereo unspecified) | -1.73
CCN(C(=O)COC)C(c1cccnc1)c1cc(C)cc(C)c1 (stereo unspecified) | 13.8
CCN(C(=O)COC)C(c1cccnc1)c1ccc2c(c1)CCO2 (stereo unspecified) | -2.44
c1cnnc(N2CCCC2CNCc2nc3ccccc3o2)c1 (stereo unspecified) | -9.74
Cc1ccc(F)cc1S(=O)(=O)N(C)CC(N)=O | -11.9
Cc1nc(CCNC(=O)NC2CCN(c3ncccn3)CC2)cs1 | -8.38
CN(CC(N)=O)S(=O)(=O)c1ccc(F)cc1Cl | -11.4
CC(C)Oc1ncc(C(=O)N2CCC(NC(=O)C3CC3)CC2)cc1Cl | 7
CCN(CC)C1CCN(C(=O)NCc2c(C)noc2C)CC1 | -7.03
COC(=O)CCNC(=O)c1ccoc1CN1c2ccccc2CC1C (stereo unspecified) | -1.15
O=C(NCCC1CCCO1)c1ccccc1N1CCOCC1 (stereo unspecified) | 1.49
Cc1ccc(N2CCCN(C(=O)c3cc(Cl)c[nH]3)CC2)nn1 | -8.66
Cc1nnc2n1CCN(C(=O)c1cn(-c3ccccc3Cl)nn1)C2 | -9.21
